Consider 1 compound from patent US12605362B2, “Eletriptan hydrobromide for treatment of spinal cord injury and improvement of locomotor function” (TECHNOPHAGE, INVESTIGAÇÃO E DESENVOLVIMENTO EM …, priority 2020, dated 2026).

Experiment [1] has as its system mice with T9 contusion type of injury. As to the kind of experiment: acetone evaporation assay (cold allodynia) after T9 contusion SCI. The format is in vivo. As to conditions: 14 dpi and 42 dpi, vs Vehicle. The method, then: (§1) A moderate-severe contusion-type of injury was performed on adult C57BL/6 female mice (10-12 weeks) with an Infinite Horizon Impactor (PSI)^30. All surgeries were performed under aseptic conditions. Briefly, under deep anesthesia with Ketamine and Xylazine (120 mg/kg and 16 mg/kg respectively, i.p.) mice received a dorsal laminectomy at the level of 9th thoracic vertebra (T9). After securing the lateral processes of the 8th thoracic vertebra (T8) and 10th thoracic vertebra (T10) with a stainless-steel impactor tip, a controlled force-defined impact at 75 kdyne was delivered to the exposed spinal cord^28,30. Then, muscle and skin were closed with 4.0 polyglycolic acid (PGA) absorbable sutures (Safil, G1048213). In this study, mice were excluded when the actual displacement value was outside the interval 500-700 μm or if the actual force after impact was >2SD 75 Kdyne. […] Weight was monitored daily until 15 days-post-injury (dpi) and then weekly for the duration of the study and a high caloric pellet (Supreme Mini-Treats™ S05478 and S05472) was provided as a dietary supplement since a 10% weight loss was typically observed in this SCI model upon injury. […]
An acetone evaporation assay was used to measure the sensitivity to a cold stimulus upon injury^33. […] In each trial, the time spent flicking or licking the hind paw for 60 seconds was measured using a timer and recorded for analysis^34. […]

Experiment [2] has the same test system. Kind of experiment: FluoroMyelin Green staining and white matter sparing analysis. Format: in vivo. As to conditions: 42 dpi; at lesion epicentre and over 700 μm rostrally and caudally, vs Vehicle. The procedure:
as §1, with “G1048213).” for “G1048213). In this study, mice were excluded when the actual displacement value was outside the interval 500-700 μm or if the actual force after impact was >2SD 75 Kdyne.”
To quantify demyelination, one set of sections spaced 100 μm apart and spanning the entire block was stained with FluoroMyelin™ Green (ThermoFisher Scientific, F34651) for 1 hour. Z-stack compositions were acquired in a motorized inverted widefield fluorescence microscope (Zeiss Cell Observer, Carl Zeiss MicroImaging) with 10× magnification. […]

For experiment [3] the test system is unchanged. As to the kind of experiment: PDGFRβ / CD31 (PECAM-1) double immunohistochemistry, vasculature association. The format is in vivo. As to conditions: sections 1000 μm from epicentre, 42 dpi, vs Vehicle. The method, then:
as §1, with “cord^28,30.” for “cord^28,30. Then, muscle and skin were closed with 4.0 polyglycolic acid (PGA) absorbable sutures (Safil, G1048213). In this study, mice were excluded when the actual displacement value was outside the interval 500-700 μm or if the actual force after impact was >2SD 75 Kdyne.”
For immunohistochemistry in sections, OCT was removed from the cryosections using PBS (30 minutes). […] For activated microglia quantification, sections were counterstained with DAPI. […]
To infer if increased levels of PDGFRβ^+ detected on the extremities of the lesion extents were associated with blood vessels we decided to performed a double immunohistochemistry using a pericyte marker PDGFRβ and an endothelial cell marker CD31 (PECAM-1) (FIG. 7). […]

The target in a further experiment is 5-HT1B (Homo sapiens, UniProt P28222). As to conditions: serotonin receptor agonist; cited from earlier work.
5-HT1B, sequence (P28222 whole entry, species assumed): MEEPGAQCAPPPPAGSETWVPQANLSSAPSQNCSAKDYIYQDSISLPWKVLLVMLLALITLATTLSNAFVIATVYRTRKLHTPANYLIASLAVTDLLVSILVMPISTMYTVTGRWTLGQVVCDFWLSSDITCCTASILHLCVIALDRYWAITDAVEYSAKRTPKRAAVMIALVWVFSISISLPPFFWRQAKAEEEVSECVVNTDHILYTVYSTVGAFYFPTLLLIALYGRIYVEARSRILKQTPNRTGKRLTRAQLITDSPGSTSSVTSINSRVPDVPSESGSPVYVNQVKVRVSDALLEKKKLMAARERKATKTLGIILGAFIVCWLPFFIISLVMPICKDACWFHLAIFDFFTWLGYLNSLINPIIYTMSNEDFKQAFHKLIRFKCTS
Another experiment deals with 5-HT1D (Homo sapiens, UniProt P28221). The settings on record: serotonin receptor agonist; cited from earlier work.
5-HT1D, sequence (P28221 whole entry, species assumed): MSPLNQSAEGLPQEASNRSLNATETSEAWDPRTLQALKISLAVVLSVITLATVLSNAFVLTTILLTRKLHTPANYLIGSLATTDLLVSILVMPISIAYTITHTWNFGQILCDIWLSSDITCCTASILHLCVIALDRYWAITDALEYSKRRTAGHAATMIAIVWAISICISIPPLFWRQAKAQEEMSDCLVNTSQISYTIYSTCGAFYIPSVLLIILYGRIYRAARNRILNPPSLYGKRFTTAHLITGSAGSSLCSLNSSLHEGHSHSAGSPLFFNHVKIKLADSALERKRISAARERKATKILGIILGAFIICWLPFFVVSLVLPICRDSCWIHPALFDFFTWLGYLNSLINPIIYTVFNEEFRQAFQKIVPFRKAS

Structures are written as SMILES. Counter-ions that a name gives are not always drawn.

Consider `CN1CCC[C@@H]1Cc1c[nH]c2ccc(CCS(=O)(=O)c3ccccc3)cc12` [Eletriptan Hbr, Eletriptan Hydrobromide], for which the “cumulative reaction time of nocifensive responses” value in experiment [1] is “consistently but not a significantly decrease”. Further, the “number of episodes of the cold hypersensitivity” value in experiment [1] is reported as “lower number of episodes”. Moreover, the “spared white matter per total cross-sectional area” value in experiment [2] was “not significantly but consistently higher”. Besides, the “increased expression of PDGFRβ associated with CD31+ endothelial cells” value in experiment [3] was “reduced”. For the same compound, the affinity result at 5-HT1B and on 5-HT1D was “high affinity” in each case.
